Reference: the NIST ThermoML archive (doi:10.1021/je030222n)

Details: Liquid

CCCCO [butan-1-ol]
Closed cell (Static) method
Details	vapor or sublimation pressure [kPa]
314.19 K	2.7
323.2 K	4.49
338.21 K	10.38
342.17 K	12.89
352.81 K	21.44
361.24 K	31.52
371.94 K	49.26

CCCCN=C=O [butyl isocyanate]
Details	vapor or sublimation pressure [kPa]
294.15 K	2.48
323.24 K	9.52
338.02 K	17.88
353.02 K	32.1
362.65 K	44.82
372.6 K	61.84
387.87 K	99.08

CCOC(N)=O [ethyl carbamate]
Closed cell (Static) method
Details	vapor or sublimation pressure [kPa]
322.6 K	0.88
337.2 K	1.287
342.3 K	1.494
352.5 K	1.957
362.6 K	2.381
371.7 K	2.953

CCCCCCCCC [nonane]
Closed cell (Static) method
Details	vapor or sublimation pressure [kPa]
322.59 K	2.34
338.33 K	4.99
351.53 K	9
371.37 K	19.81
